# Experimental data taken from the supplement of paper PMC10307832.
# Assays:
# Test in all cases: relative viability (nuclei count vs DMSO), 5 days (fraction); higher = more cells survive
# [1] = compound: CCC1=CN=CN=C1N2CCN(CC2)CC3=NC4=C(N3)C=C(C=C4)C(F)(F)F + Nc1ncn([C@H]2C[C@H](O)[C@@H](CO)O2)c(=O)n1 [Decitabine] (partner 2 µM)
# Summary of the method: (§1)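 Medians of duplicate plates are given as relative viability. That measure is the nuclei count in treated wells divided by the count in vehicle wells. Counts were taken on 4× images of lung cancer cell lines in 1536-well plates, 5 days after pin-tool dosing the day after seeding with one drug alone or a fixed anchor-drug dose plus five library-drug doses (not always all listed) in √10 steps.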
# [2] = compound: CCn1c(-c2nonc2N)nc2cnc(Oc3cccc(NC(=O)c4ccc(OCCN5CCOCC5)cc4)c3)cc21 + Cc1nc(Nc2ncc(C(=O)Nc3c(C)cccc3Cl)s2)cc(N2CCN(CCO)CC2)n1 [Dasatinib] (partner 0.075 µM)
# Summary of the method: as §1
# Mirin + Trametinib = compound: N=C1NC(=O)/C(=C/c2ccc(O)cc2)S1 [Mirin] + CC(=O)Nc1cccc(-n2c(=O)n(C3CC3)c(=O)c3c(Nc4ccc(I)cc4F)n(C)c(=O)c(C)c32)c1 [Trametinib] (partner 0.02 µM)
# Summary of the method: as §1
# Mirin + Bortezomib = compound: N=C1NC(=O)/C(=C/c2ccc(O)cc2)S1 [Mirin] + CC(C)C[C@H](NC(=O)[C@H](Cc1ccccc1)NC(=O)c1cnccn1)B(O)O [Bortezomib] (partner 0.002 µM)
# Summary of the method: as §1
Cell Line,relative viability ([1]; first compound 0.04 µM),relative viability ([1]; first compound 0.1265 µM),relative viability ([1]; first compound 0.4 µM),relative viability ([1]; first compound 1.265 µM),relative viability ([1]; first compound 4 µM),relative viability ([2]; first compound 0.04 µM),relative viability ([2]; first compound 0.1265 µM),relative viability ([2]; first compound 0.4 µM),relative viability ([2]; first compound 1.265 µM),relative viability ([2]; first compound 4 µM),relative viability (Mirin + Trametinib; first compound 0.25 µM),relative viability (Mirin + Trametinib; first compound 0.7906 µM),relative viability (Mirin + Trametinib; first compound 2.5 µM),relative viability (Mirin + Trametinib; first compound 7.906 µM),relative viability (Mirin + Trametinib; first compound 25 µM),relative viability (Mirin + Bortezomib; first compound 0.25 µM),relative viability (Mirin + Bortezomib; first compound 0.7906 µM),relative viability (Mirin + Bortezomib; first compound 2.5 µM),relative viability (Mirin + Bortezomib; first compound 7.906 µM),relative viability (Mirin + Bortezomib; first compound 25 µM)
NCI-H2170,0.44,0.462,0.451,0.433,0.461,0.553,0.676,0.665,0.515,0.443,0.981,0.875,0.976,0.915,0.859,–,–,–,–,–
A549,0.277,0.121,0.237,0.265,0.247,–,–,–,–,–,–,–,–,–,–,–,–,–,–,–
NCI-H1975,0.358,0.396,0.41,0.339,0.393,0.309,0.268,0.186,0.18,0.142,0.379,0.337,0.365,0.337,0.55,0.375,0.366,0.468,0.498,0.321
Calu-6,–,–,–,–,–,–,–,–,–,–,–,–,–,–,–,0.925,1.08,1.04,0.895,0.841
NCI-H1648,0.502,–,–,0.511,0.502,–,–,–,–,–,0.448,–,0.41,0.457,0.389,–,–,–,–,–
NCI-H1623,–,–,–,–,–,0.655,0.797,0.529,0.543,0.606,–,–,–,–,–,–,–,–,–,–
NCI-H322M,0.687,0.658,0.632,0.654,0.699,0.255,0.216,0.231,0.274,0.259,0.497,0.506,0.555,0.564,0.571,1.22,1.29,1.41,1.42,1.24
